# Patent publication US12491185B2, “Inhibitors of mPTP” (NRG Therapeutics Ltd, priority 2023, dated 2025)
# What was measured:
# mPTP [1] = experiment: mPTP activity (Ca2+ retention) assay in isolated rat liver mitochondria; format: biochemical; details: examples tested by different contract research organisations, believed comparable
# Summary of the method: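 pIC50 was taken from Fluo5N fluorescence at 10 min after a 75 μM CaCl2 bolus, scaled between DMSO (0%) and 5 μM cyclosporin A (100%). Compounds, ten half-log concentrations from 30 μM to 1 nM final, sat 10 min at RT with fresh female Sprague Dawley rat liver mitochondria energized by succinate plus rotenone.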
# mPTP [2] = experiment: mPTP activity assay in isolated rat brain mitochondria; format: biochemical; details: for mPTP Rat brain pIC50: fluorescence at 10 min timepoint
# Protocol: MPTP activity was measured in brain mitochondria freshly isolated from female Sprague Dawley (250 to 300 gram) rats. Anaesthetised rats were perfused in-situ with −40 ml cold Dulbecco's Phosphate Buffered Saline (DPBS), then brains dissected and transferred into 30 ml Isolation Buffer (225 mM mannitol, 75 mM sucrose, 1 mM EGTA, adjusted to pH 7.4 with 1M NaOH). The brain was minced using tweezers and a scalpel into −5 mm pieces then transferred into a 50 ml Potterton Dounce homogenization tube on ice containing 10 ml ice-cold isolation buffer (as above with addition of Complete Protease inhibitor; 1 tablet per 50 ml buffer). Homogenisation was carried out using a teflon pestle at 1800 rpm. The slurry was centrifuged at 2000 g for 10 min at 4° C., then the supernatant centrifuged at 12,000 g for 9 min. The pellet was resuspended with a dounce homogeniser in isolation buffer as above but with the addition of 0.02% digitonin, centrifuged at 12,000 g for 11 min and finally resuspended in 5 ml modified isolation buffer (as above but with EGTA reduced to 0.1 mM).
# Test compounds were prepared in 384 well polypropylene assay plates as described above for the liver mitochondria assay. A stock mitochondria/Fluo5N assay solution was prepared in 5.6 ml assay buffer (120 mM mannitol, 40 mM MOPS, 5 mM KH2PO4, 60 mM KCl, 10 mM pyruvate, 2 mM malate, 2 mM MgCl2, 20 μM ADP, 1.26 μM oligomycin A, adjusted to pH 7.4) supplemented with Fluo5N pentapotassium salt (2 μM) and 1 ml mitochondria suspension, then transferred (15 μl) into the assay plate containing test compounds and incubated for 10 min at RT. Assay plates were then transferred to a FLIPR Tetra plate reader (Molecular Devices). Dye fluorescence was then measured every 3 sec for a total of 10 min.
mPTP Rat liver pIC50 (mPTP [1]),mPTP Rat brain pIC50 (mPTP [2]),mPTP rat brain mitochondria pIC50 (mPTP [2]; Fluo5N fluorescence at 10 min after 75 μM Ca2+),SMILES
6.45,7.29,–,"CCC(F)(CNC(=O)c1nccc(=O)[nH]1)Cc1ccc(F)cc1F (single isomer, unassigned) [Example 255, N-(2-(2,4-difluorobenzyl)-2-fluorobutyl)-6-oxo-1,6-dihydropyrimidine-2-carboxamide]"
6.97,7.77,–,Cn1nc(C(=O)NC[C@H](Cc2cc(F)ccc2F)C2CC2)[nH]c1=O [Example 159]
6.51,7.5,–,O=C(NCC1(Cc2ccc(F)c(F)c2)CCC1)c1nccc(=O)[nH]1 [Example 133]
6.29,7.74,–,O=C(NCC1(Cc2cc(F)ccc2F)CCC1)c1cncc(=O)[nH]1 [Example 174]
6.75,8.57,highest activity,"CC(CNC(=O)c1noc(=O)[nH]1)(Cc1ccc(F)cc1)C1CC1 (single isomer, unassigned) [Example 275, N-(2-cyclopropyl-3-(4-fluorophenyl)-2-methylpropyl)-5-oxo-4,5-dihydro-1,2,4-oxadiazole-3-carboxamide]"
7.13,8.29,–,"CC(CNC(=O)c1ncc(F)c(=O)[nH]1)(Cc1ccc(F)cc1)C1CC1 (single isomer, unassigned) [Example 261, N-[2-cyclopropyl-3-(4-fluorophenyl)-2-methylpropyl]-5-fluoro-4-oxo-3H-pyrimidine-2-carboxamide]"
4.52,4.82,–,"CC(c1ccc(F)cc1F)[C@@H](CNC(=O)c1nccc(=O)[nH]1)C1CC1 (single isomer, unassigned) [Example 226]"
5.15,6.21,–,CC(c1ccc(F)cc1F)[C@@H](CNC(=O)c1nn(C)c(=O)[nH]1)C1CC1 (stereo partly shown) [Example 238]
5.92,6.81,–,O=C(NCC1(Cc2ccc(F)cc2F)CCC1)c1ccc(=O)[nH]n1 [Example 175]
6.21,7.76,–,"Cn1nc(C(=O)NCC(C)(Cc2c(F)cc(F)cc2F)C2CC2)[nH]c1=O (single isomer, unassigned) [Example 227, N-[2-cyclopropyl-2-methyl-3-(2,4,6-trifluorophenyl)propyl]-1-methyl-5-oxo-4H-1,2,4-triazole-3-carboxamide]"
<4.57,<4.52,–,"Cn1nc(C(=O)N2CCC(c3ccccc3)CC2)[nH]c1=O [Reference Example 115, 2-methyl-5-(4-phenylpiperidine-1-carbonyl)-2,4-dihydro-3H-1,2,4-triazol-3-one]"
6.04,7.27,–,"Cc1ccc(F)c(CC2(CNC(=O)c3nn(C)c(=O)[nH]3)CCC2)c1 [Example 83, N-((1-(2-Fluoro-5-methylbenzyl)cyclobutyl)methyl)-1-methyl-5-oxo-4,5-dihydro-1H-1,2,4-triazole-3-carboxamide]"
7.08,7.61,–,Cn1nc(C(=O)NC[C@H](Cc2ccc(F)c(F)c2)C2CC2)[nH]c1=O [Example 150]
6.22,7.12,–,O=C(NC[C@H](Cc1cc(F)ccc1F)C1CC1)c1nccc(=O)[nH]1 [Example 153]
6.65,7.56,–,"Cn1nc(C(=O)NCC2(Cc3ccc(F)cc3F)CC23CC3)[nH]c1=O (single isomer, unassigned) [Example 232, N-((1-(2,4-difluorobenzyl)spiro[2.2]pentan-1-yl)methyl)-1-methyl-5-oxo-4,5-dihydro-1H-1,2,4-triazole-3-carboxamide]"
6.61,7.37,–,"Cn1nc(C(=O)NCC2(Cc3ccc(F)cc3F)CC23CC3)[nH]c1=O (single isomer, unassigned) [Example 231, N-((1-(2,4-difluorobenzyl)spiro[2.2]pentan-1-yl)methyl)-1-methyl-5-oxo-4,5-dihydro-1H-1,2,4-triazole-3-carboxamide]"
6.46,8.22,–,"C[C@@](CNC(=O)c1ncc(Cl)c(=O)[nH]1)(Cc1ccc(F)cc1F)C1CC1 [Example 259, 5-chloro-N-[(2R)-2-cyclopropyl-3-(2,4-difluorophenyl)-2-methylpropyl]-4-oxo-3H-pyrimidine-2-carboxamide]"
6.32,7.07,–,O=C(NC[C@H](Cc1ccc(F)cc1F)C1CC1)c1cncc(=O)[nH]1 [Example 149]
6.55,7.32,–,"Cc1cnc(C(=O)NCC(C)(Cc2ccc(F)cc2)C2CC2)[nH]c1=O (single isomer, unassigned) [Example 267]"

# More lines, now with the values behind:
SMILES,mPTP Rat liver pIC50 (mPTP [1]),mPTP Rat brain pIC50 (mPTP [2]),mPTP rat brain mitochondria pIC50 (mPTP [2]; Fluo5N fluorescence at 10 min after 75 μM Ca2+)
"CCC(NC(=O)c1nn(C)c(=O)[nH]1)C(C)(C)Cc1ccccc1 (stereo not shown) [Example 34, N-(2,2-dimethyl-1-phenylpentan-3-yl)-1-methyl-5-oxo-4,5-dihydro-1H-1,2,4-triazole-3-carboxamide]",5.82,7.32,–
"O=C(NCC1(Cc2cccc(F)c2)CCC1)c1cncc(O)n1 [Example 49, N-((1-(3-fluorobenzyl)cyclobutyl)methyl)-6-hydroxypyrazine-2-carboxamide]",4.56,7.44,–
"Cc1n[nH]c(C(=O)NCC2(Cc3ccccc3)CCC2)n1 [Example 64, N-((1-benzylcyclobutyl)methyl)-3-methyl-1H-1,2,4-triazole-5-carboxamide]",<4.52,4.64,–
"Cn1nc(C(=O)NCC(Cc2ccccc2)C2CC2)[nH]c1=O (stereo not shown) [Example 53, N-(2-cyclopropyl-3-phenylpropyl)-1-methyl-5-oxo-4,5-dihydro-1H-1,2,4-triazole-3-carboxamide]",6.46,7.46,–
"CC(c1ccccc1)C1(CNC(=O)c2nn(C)c(=O)[nH]2)CCC1 (stereo not shown) [Example 25, 1-methyl-5-oxo-N-((1-(1-phenylethyl)cyclobutyl)methyl)-4,5-dihydro-1H-1,2,4-triazole-3-carboxamide]",6.42,7.37,–
"O=C(NCC1(Cc2ccc(F)cc2F)CC(F)C1)c1nccc(=O)[nH]1 (single isomer, unassigned) [Example 248]",6.16,7.05,–
"CC(c1ccc(F)cc1F)C1(CNC(=O)c2nn(C)c(=O)[nH]2)CCC1 (stereo not shown) [Example 52, N-((1-(1-(2,4-difluorophenyl)ethyl)cyclobutyl)methyl)-1-methyl-5-oxo-4,5-dihydro-1H-1,2,4-triazole-3-carboxamide]",6.41,7.64,–
"Cn1nc(C(=O)NCC2(Cc3ccccc3)CCC2)[nH]c1=O [Example 10, N-((1-benzylcyclobutyl)methyl)-1-methyl-5-oxo-4,5-dihydro-1H-1,2,4-triazole-3-carboxamide]",6.58,7.42,–
"Cn1nc(C(=O)NCC(C)(C)Cc2ccccc2)[nH]c1=O [Example 31, N-(2,2-dimethyl-3-phenylpropyl)-1-methyl-5-oxo-4,5-dihydro-1H-1,2,4-triazole-3-carboxamide]",6.48,7.37,–
"O=C(NCC1(Cc2ccccc2)CCC1)c1cnn[nH]1 [Example 5, N-((1-benzylcyclobutyl)methyl)-1H-1,2,3-triazole-5-carboxamide]",5.61,6.72,–
"Cn1nc(C(=O)NCC(Cc2ccccc2)C2CCC2)[nH]c1=O (stereo not shown) [Example 51, N-(2-cyclobutyl-3-phenylpropyl)-1-methyl-5-oxo-4,5-dihydro-1H-1,2,4-triazole-3-carboxamide]",5.62,6.84,–
"O=C(NCC1(Cc2ccccc2)CCC1)c1nc(=O)[nH][nH]1 [Example 8, N-((1-benzylcyclobutyl)methyl)-5-oxo-2,5-dihydro-1H-1,2,4-triazole-3-carboxamide]",6.32,7.40,–
"O=C(NCC1(Cc2ccccc2)CCCC1)c1cncc(=O)[nH]1 [Example 18, N-((1-benzylcyclopentyl)methyl)-6-oxo-1,6-dihydropyrazine-2-carboxamide]",5.55,7.04,–
"O=C(NCC1(Cc2ccc(F)cc2)CCC1)c1cncc(O)n1 [Example 50, N-((1-(4-fluorobenzyl)cyclobutyl)methyl)-6-hydroxypyrazine-2-carboxamide]",4.66,7.23,–
